Measurements reported in the supplement of paper PMC10307832.

Columns and labels:
Assay in all cases: relative viability (nuclei count vs DMSO), 5 days (fraction); higher = more cells survive
AGI-6780 + Vorinostat = compound: O=C(Nc1cccc(C(F)(F)F)c1)Nc1cc(S(=O)(=O)NC2CC2)ccc1-c1ccsc1 [AGI-6780] + O=C(CCCCCCC(=O)Nc1ccccc1)NO [Vorinostat] (partner 1 µM)
How it was run: (§1)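 Nuclei were stained with Hoechst during a one-step fixation (final 0.05% Triton X-100, 1% formaldehyde, 1 ug/ml Hoechst) carried out 5 days after dosing, then counted on 4× images. The cells, lung cancer lines in 1536-well plates, had been dosed by pin tool the day after seeding with one drug alone or a fixed anchor-drug dose plus five library-drug doses (not always all listed) in √10 steps. Relative viability is the nuclei count in treated wells divided by that in vehicle wells, and each value is the median of duplicate plates.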

AGI-6780 + Navitoclax = compound: O=C(Nc1cccc(C(F)(F)F)c1)Nc1cc(S(=O)(=O)NC2CC2)ccc1-c1ccsc1 [AGI-6780] + CC1(C)CCC(c2ccc(Cl)cc2)=C(CN2CCN(c3ccc(C(=O)NS(=O)(=O)c4ccc(N[C@H](CCN5CCOCC5)CSc5ccccc5)c(S(=O)(=O)C(F)(F)F)c4)cc3)CC2)C1 [Navitoclax] (partner 0.5 µM)
How it was run: as §1

AGI-6780 + Alpelisib = compound: O=C(Nc1cccc(C(F)(F)F)c1)Nc1cc(S(=O)(=O)NC2CC2)ccc1-c1ccsc1 [AGI-6780] + Cc1nc(NC(=O)N2CCC[C@H]2C(N)=O)sc1-c1ccnc(C(C)(C)C(F)(F)F)c1 [Alpelisib] (partner 2 µM)
How it was run: as §1

AGI-6780 + Linsitinib = compound: O=C(Nc1cccc(C(F)(F)F)c1)Nc1cc(S(=O)(=O)NC2CC2)ccc1-c1ccsc1 [AGI-6780] + C[C@]1(O)C[C@@H](c2nc(-c3ccc4ccc(-c5ccccc5)nc4c3)c3c(N)nccn32)C1 [Linsitinib] (partner 1 µM)
How it was run: as §1

Cell Line | relative viability (AGI-6780 + Vorinostat; first compound 0.08 µM) | relative viability (AGI-6780 + Vorinostat; first compound 0.253 µM) | relative viability (AGI-6780 + Vorinostat; first compound 0.8 µM) | relative viability (AGI-6780 + Vorinostat; first compound 2.53 µM) | relative viability (AGI-6780 + Vorinostat; first compound 8 µM) | relative viability (AGI-6780 + Navitoclax; first compound 0.08 µM) | relative viability (AGI-6780 + Navitoclax; first compound 0.253 µM) | relative viability (AGI-6780 + Navitoclax; first compound 0.8 µM) | relative viability (AGI-6780 + Navitoclax; first compound 2.53 µM) | relative viability (AGI-6780 + Navitoclax; first compound 8 µM) | relative viability (AGI-6780 + Alpelisib; first compound 0.08 µM) | relative viability (AGI-6780 + Alpelisib; first compound 0.253 µM) | relative viability (AGI-6780 + Alpelisib; first compound 0.8 µM) | relative viability (AGI-6780 + Alpelisib; first compound 2.53 µM) | relative viability (AGI-6780 + Alpelisib; first compound 8 µM) | relative viability (AGI-6780 + Linsitinib; first compound 0.08 µM) | relative viability (AGI-6780 + Linsitinib; first compound 0.253 µM) | relative viability (AGI-6780 + Linsitinib; first compound 0.8 µM) | relative viability (AGI-6780 + Linsitinib; first compound 2.53 µM) | relative viability (AGI-6780 + Linsitinib; first compound 8 µM)
LXF-289 | 0.858 | 0.788 | 0.736 | 0.843 | 0.778 | 0.967 | 0.939 | 0.936 | 0.987 | 0.939 | 1.03 | 1.04 | 1.07 | 1.09 | 1.03 | 0.952 | 1.01 | 1.01 | 1.01 | 0.897
A-427 |  | 0.82 | 0.857 | 0.816 | 0.836 | 0.942 | 0.922 | 1 | 0.81 | 0.942 | 1.06 | 1.02 | 1.09 | 0.902 | 1.06 | 1.09 | 1.07 | 1.1 | 1.03 | 1.12
COR-L23 | 0.348 | 0.425 | 0.429 | 0.554 | 0.453 | 1.01 | 0.961 | 0.985 | 1.02 | 1.11 | 0.757 | 0.688 | 0.67 | 0.747 | 0.699 | 0.969 | 0.766 | 0.77 | 1.08 | 0.891
NCI-H460 | 0.787 | 0.678 | 0.779 | 0.658 | 0.659 | 1.14 | 1.03 | 1.04 | 1.14 | 1.14 | 0.536 | 0.458 | 0.514 | 0.327 | 0.568 | 0.796 | 0.788 | 0.936 | 0.741 | 0.72
NCI-H2228 | 0.641 | 0.597 | 0.592 | 0.502 | 0.537 | 0.753 | 1.04 | 0.675 | 0.856 | 1.08 | 0.904 | 0.831 | 0.563 | 0.618 | 0.635 | 0.8 | 1.07 | 0.604 | 0.754 | 0.629
EKVX | 0.827 | 0.686 | 0.752 | 0.721 | 0.614 | 1.02 | 0.879 | 0.935 | 0.717 | 0.978 | 0.96 | 0.839 | 0.995 | 0.755 | 0.898 | 1.09 | 1.03 | 0.966 | 1.05 | 1.04
HCC-78 | 0.527 | 0.411 | 0.577 | 0.432 | 0.389 | 0.845 | 0.789 | 0.9 | 0.779 | 0.801 | 0.366 | 0.331 | 0.462 | 0.32 | 0.361 | 0.592 | 0.491 | 0.587 | 0.561 | 0.537
NCI-H520 | 0.694 | 0.71 | 0.91 | 0.64 | 0.764 | 1.04 | 1.12 | 1.18 | 1.05 | 1.05 | 1.05 | 1.08 | 0.959 | 0.732 | 0.922 | 1.04 | 0.959 | 0.979 | 0.753 | 1.04
UMC-11 | 0.407 | 0.426 | 0.447 |  | 0.434 | 0.318 | 0.372 | 0.348 |  | 0.399 | 0.938 | 0.866 | 1.07 |  | 0.947 | 0.868 | 0.968 | 1.08 |  | 0.987
NCI-H441 | 0.748 | 0.711 | 0.853 | 0.547 | 0.676 | 0.702 | 0.993 | 0.604 | 0.487 | 0.663 | 0.885 | 0.783 | 0.713 | 0.382 | 0.646 | 0.498 | 0.528 | 0.461 | 0.424 | 0.459
EMC-BAC-2 |  | 0.453 | 0.809 | 0.4 | 0.421 | 1.19 | 1.14 | 1.23 | 1.14 | 1.17 | 0.797 | 0.73 | 0.756 | 0.67 | 0.778 | 0.845 | 0.82 | 0.835 | 0.782 | 0.822
NCI-H1755 | 0.751 | 0.813 | 0.646 | 0.605 | 0.8 | 1.04 | 1.01 | 0.977 | 0.961 | 0.894 | 0.991 | 0.936 | 0.948 | 0.83 | 0.898 | 0.987 | 1.01 | 0.999 | 0.974 | 0.923
NCI-H647 | 0.734 | 0.628 | 0.942 | 0.572 | 0.752 | 1.2 | 1.22 | 1.33 | 1.09 | 1.19 | 1.19 | 1.16 | 1.24 | 1.06 | 1.13 | 1.17 | 1.19 | 1.12 | 1.14 | 1.2
H3255 | 0.541 | 0.865 | 0.893 |  | 0.867 | 0.395 | 0.537 | 0.688 | 0.292 | 0.516 | 0.687 | 0.62 | 0.728 | 0.468 | 0.754 | 1 | 0.947 | 0.96 | 0.968 | 0.969
